± gives the expanded uncertainty stated by the source.
Experiments:
[1] = 101 kPa, Liquid; for viscosity: Capillary tube (Ostwald / Ubbelohde) method; for speed of sound: Frequency=3 MHz, Linear variable-path acoustic interferometer
[2] = xn = mol fraction of the nth substance listed; settings: 101 kPa, Liquid; for viscosity: Capillary tube (Ostwald / Ubbelohde) method; for speed of sound: Frequency=3 MHz, Linear variable-path acoustic interferometer

| SMILES | viscosity ([1]; 293.15 K) [mPa·s] | speed of sound ([1]; 293.15 K) [m/s] | viscosity ([1]; 298.15 K) [mPa·s] | speed of sound ([1]; 298.15 K) [m/s] | viscosity ([1]; 303.15 K) [mPa·s] | speed of sound ([1]; 303.15 K) [m/s] | viscosity ([1]; 308.15 K) [mPa·s] | speed of sound ([1]; 308.15 K) [m/s] | viscosity ([1]; 313.15 K) [mPa·s] | speed of sound ([1]; 313.15 K) [m/s] | viscosity ([1]; 318.15 K) [mPa·s] | speed of sound ([1]; 318.15 K) [m/s] | viscosity ([2]; 293.15 K, x1 = 1) [mPa·s] | speed of sound ([2]; 293.15 K, x1 = 1) [m/s] | viscosity ([2]; 298.15 K, x1 = 1) [mPa·s] | speed of sound ([2]; 298.15 K, x1 = 1) [m/s] | viscosity ([2]; 303.15 K, x1 = 1) [mPa·s] | speed of sound ([2]; 303.15 K, x1 = 1) [m/s] | viscosity ([2]; 308.15 K, x1 = 1) [mPa·s] | speed of sound ([2]; 308.15 K, x1 = 1) [m/s] | also measured |
| --- | --- | --- | --- | --- | --- | --- | --- | --- | --- | --- | --- | --- | --- | --- | --- | --- | --- | --- | --- | --- | --- |
| Cc1ccccc1C [1,2-dimethylbenzene] | 0.8066 ± 0.017 | 1367.7 ± 1.7 | 0.7576 ± 0.016 | 1347.5 ± 1.7 | 0.7132 ± 0.015 | 1329.4 ± 1.7 | 0.669 ± 0.014 | 1313.3 ± 1.7 | 0.6315 ± 0.013 | 1298.5 ± 1.6 | 0.5972 ± 0.013 | 1285.2 ± 1.6 |  |  |  |  |  |  |  |  |  |
| Cc1cc(C)cc(C)c1 [1,3,5-trimethylbenzene] | 0.7056 ± 0.015 | 1360.4 ± 1.7 | 0.6592 ± 0.014 | 1339.8 ± 1.7 | 0.6188 ± 0.013 | 1319.6 ± 1.7 | 0.5792 ± 0.012 | 1300.2 ± 1.7 | 0.5422 ± 0.011 | 1280.4 ± 1.7 | 0.5066 ± 0.011 | 1263 ± 1.7 |  |  |  |  |  |  |  |  |  |
| Cc1cccc(C)c1 [1,3-dimethylbenzene] | 0.6184 ± 0.013 | 1346.7 ± 1.7 | 0.584 ± 0.012 | 1323.6 ± 1.7 | 0.5517 ± 0.012 | 1302.4 ± 1.7 | 0.5229 ± 0.011 | 1282.3 ± 1.6 | 0.4938 ± 0.01 | 1262.3 ± 1.6 | 0.468 ± 0.0099 | 1243 ± 1.6 |  |  |  |  |  |  |  |  |  |
| Cc1ccc(C)cc1 [1,4-dimethylbenzene] | 0.6505 ± 0.014 | 1328.4 ± 1.7 | 0.6115 ± 0.013 | 1307.4 ± 1.7 | 0.5766 ± 0.012 | 1287.3 ± 1.6 | 0.544 ± 0.011 | 1267.6 ± 1.6 | 0.5132 ± 0.011 | 1248.3 ± 1.6 | 0.4862 ± 0.01 | 1229.8 ± 1.6 |  |  |  |  |  |  |  |  |  |
| C1COCCO1 [1,4-dioxane] | 1.306 ± 0.027 | 1367.2 ± 1.7 | 1.195 ± 0.025 | 1344.7 ± 1.7 | 1.096 ± 0.023 | 1323.1 ± 1.7 | 1.014 ± 0.021 | 1301.2 ± 1.7 | 0.945 ± 0.02 | 1279.7 ± 1.6 | 0.884 ± 0.018 | 1258.6 ± 1.6 |  |  |  |  |  |  |  |  |  |
| C1COCCO1 [1,4-dioxane] + Cc1cc(C)cc(C)c1 |  |  |  |  |  |  |  |  |  |  |  |  | 1.306 ± 0.027 | 1367.2 ± 1.7 | 1.195 ± 0.025 | 1344.7 ± 1.7 | 1.096 ± 0.023 | 1323.1 ± 1.7 | 1.014 ± 0.021 | 1301.2 ± 1.7 | viscosity ([2]; 313.15 K, x1 = 1): 0.945 ± 0.02 mPa·s; speed of sound ([2]; 313.15 K, x1 = 1): 1279.7 ± 1.6 m/s; viscosity ([2]; 318.15 K, x1 = 1): 0.884 ± 0.018 mPa·s; speed of sound ([2]; 318.15 K, x1 = 1): 1258.6 ± 1.6 m/s |
| C1COCCO1 [1,4-dioxane] + Cc1ccc(C)cc1 |  |  |  |  |  |  |  |  |  |  |  |  | 1.306 ± 0.027 | 1367.2 ± 1.7 | 1.195 ± 0.025 | 1344.7 ± 1.7 | 1.096 ± 0.023 | 1323.1 ± 1.7 | 1.014 ± 0.021 | 1301.2 ± 1.7 | viscosity ([2]; 313.15 K, x1 = 1): 0.945 ± 0.02 mPa·s; speed of sound ([2]; 313.15 K, x1 = 1): 1279.7 ± 1.6 m/s; viscosity ([2]; 318.15 K, x1 = 1): 0.884 ± 0.018 mPa·s; speed of sound ([2]; 318.15 K, x1 = 1): 1258.6 ± 1.6 m/s |
| C1COCCO1 [1,4-dioxane] + Cc1cccc(C)c1 |  |  |  |  |  |  |  |  |  |  |  |  | 1.306 ± 0.027 | 1367.2 ± 1.7 | 1.195 ± 0.025 | 1344.7 ± 1.7 | 1.096 ± 0.023 | 1323.1 ± 1.7 | 1.014 ± 0.021 | 1301.2 ± 1.7 | viscosity ([2]; 313.15 K, x1 = 1): 0.945 ± 0.02 mPa·s; speed of sound ([2]; 313.15 K, x1 = 1): 1279.7 ± 1.6 m/s; viscosity ([2]; 318.15 K, x1 = 1): 0.884 ± 0.018 mPa·s; speed of sound ([2]; 318.15 K, x1 = 1): 1258.6 ± 1.6 m/s |
| C1COCCO1 [1,4-dioxane] + Cc1ccccc1C |  |  |  |  |  |  |  |  |  |  |  |  | 1.306 ± 0.027 | 1367.2 ± 1.7 | 1.195 ± 0.025 | 1344.7 ± 1.7 | 1.096 ± 0.023 | 1323.1 ± 1.7 | 1.014 ± 0.021 | 1301.2 ± 1.7 | viscosity ([2]; 313.15 K, x1 = 1): 0.945 ± 0.02 mPa·s; speed of sound ([2]; 313.15 K, x1 = 1): 1279.7 ± 1.6 m/s; viscosity ([2]; 318.15 K, x1 = 1): 0.884 ± 0.018 mPa·s; speed of sound ([2]; 318.15 K, x1 = 1): 1258.6 ± 1.6 m/s |
| c1ccccc1 [benzene] | 0.647 ± 0.013 | 1324.4 ± 1.6 | 0.6048 ± 0.013 | 1299.5 ± 1.6 | 0.5672 ± 0.012 | 1275.7 ± 1.6 | 0.5322 ± 0.011 | 1252.4 ± 1.6 | 0.498 ± 0.01 | 1229.3 ± 1.6 | 0.4672 ± 0.0098 | 1207.8 ± 1.6 |  |  |  |  |  |  |  |  |  |
| c1ccccc1 [benzene] + C1COCCO1 |  |  |  |  |  |  |  |  |  |  |  |  |  |  |  |  |  |  |  |  | viscosity ([2]; 293.15 K, x2 = 0): 0.647 ± 0.013 mPa·s; speed of sound ([2]; 293.15 K, x2 = 0): 1324.4 ± 1.6 m/s; viscosity ([2]; 298.15 K, x2 = 0): 0.6048 ± 0.013 mPa·s; speed of sound ([2]; 298.15 K, x2 = 0): 1299.5 ± 1.6 m/s; viscosity ([2]; 303.15 K, x2 = 0): 0.5672 ± 0.012 mPa·s; speed of sound ([2]; 303.15 K, x2 = 0): 1275.7 ± 1.6 m/s; viscosity ([2]; 308.15 K, x2 = 0): 0.5322 ± 0.011 mPa·s; speed of sound ([2]; 308.15 K, x2 = 0): 1252.4 ± 1.6 m/s; viscosity ([2]; 313.15 K, x2 = 0): 0.498 ± 0.01 mPa·s; speed of sound ([2]; 313.15 K, x2 = 0): 1229.3 ± 1.6 m/s; viscosity ([2]; 318.15 K, x2 = 0): 0.4672 ± 0.0098 mPa·s; speed of sound ([2]; 318.15 K, x2 = 0): 1207.8 ± 1.6 m/s |
| Cc1ccccc1 [toluene] | 0.5885 ± 0.012 | 1328.6 ± 1.6 | 0.5541 ± 0.012 | 1307.3 ± 1.6 | 0.5232 ± 0.011 | 1285.5 ± 1.6 | 0.495 ± 0.01 | 1264.2 ± 1.6 | 0.4662 ± 0.0098 | 1242.4 ± 1.6 | 0.4384 ± 0.0092 | 1220.7 ± 1.6 |  |  |  |  |  |  |  |  |  |
| Cc1ccccc1 [toluene] + C1COCCO1 |  |  |  |  |  |  |  |  |  |  |  |  |  |  |  |  |  |  |  |  | viscosity ([2]; 293.15 K, x2 = 0): 0.5885 ± 0.012 mPa·s; speed of sound ([2]; 293.15 K, x2 = 0): 1328.6 ± 1.6 m/s; viscosity ([2]; 298.15 K, x2 = 0): 0.5541 ± 0.012 mPa·s; speed of sound ([2]; 298.15 K, x2 = 0): 1307.3 ± 1.6 m/s; viscosity ([2]; 303.15 K, x2 = 0): 0.5232 ± 0.011 mPa·s; speed of sound ([2]; 303.15 K, x2 = 0): 1285.5 ± 1.6 m/s; viscosity ([2]; 308.15 K, x2 = 0): 0.495 ± 0.01 mPa·s; speed of sound ([2]; 308.15 K, x2 = 0): 1264.2 ± 1.6 m/s; viscosity ([2]; 313.15 K, x2 = 0): 0.4662 ± 0.0098 mPa·s; speed of sound ([2]; 313.15 K, x2 = 0): 1242.4 ± 1.6 m/s; viscosity ([2]; 318.15 K, x2 = 0): 0.4384 ± 0.0092 mPa·s; speed of sound ([2]; 318.15 K, x2 = 0): 1220.7 ± 1.6 m/s |
